“And” between values parts separate entries of the source, which are not always exact repeats. Equal values may be shown once.
Key:
hCB1R = target: T1, hCB1R (Homo sapiens, UniProt P21554); test: Inhibition of CP55,940-induced [35S]GTPγS binding in hCB1R-CHO-K1 cell membranes; format: biochemical; details: for [35S]GTPγS binding, % basal response / [35S]GTPγS binding, cpm values: averages of Experiments 1-4
T1 construct: purchased Revvity ES-110-M400UA; host or cells: CHO-K1 (recombinant hCB1R), membranes
Method: The inhibitory potencies of the antagonists in G protein signaling were measured as described previously. […] GTPγS binding at the ~EC80 level. hCB1R-CHO-K1 cell membrane (4 μg) (Revvity, ES-110-M400UA) was incubated with 0.05 nM [^35S]GTPγS (Revvity) and the indicated concentrations of ligands in TEM buffer (50 mM Tris-HCl, 0.2 mM EGTA, and 9 mM MgCl2, pH 7.4) containing 100 µM GDP, 150 mM NaCl, and 0.1% (w/v) bovine serum albumin in a total volume of 1 ml for 60 min at 30 °C. […] Agonist-stimulated [^35S]GTPγS binding was expressed as the percent of increase over baseline. Bound and free [^35S]GTPγS levels were separated by vacuum filtration through Whatman GF/B filters using a Brandel M24 Cell Harvester (Gaithersburg, MD). Filters were washed with 3 × 5-ml of ice-cold buffer, and radioactivity was detected by scintillation spectrometry (LS6500; Beckman Coulter). Dose-response curves were generated in the presence of increasing concentrations of antagonists. Concentration-response relationships were analyzed by fitting the data to the three-parameter model ‘log(agonist) vs response’ in GraphPad Prism 10.

hCNR1 = target: T2, hCNR1 (Homo sapiens, UniProt P21554); test: Inhibition of CP55,940-induced β-arrestin-2 recruitment, PathHunter eXpress CNR1 CHO-K1 assay; format: cell-based; details: for β-arrestin-2 recruitment, lum values: averages of single experiments
T2 construct: host or cells: CHO-K1 (PathHunter eXpress CNR1 β-arrestin-2, purchased recombinant cell line)
Method: The inhibitory potencies of the antagonists in β-arrestin-2 signaling was measured using the DiscoverX β-arrestin-2 recruitment assay for hCNR1 (Eurofins, catalog # 93-0959E2CP). The assay was performed following supplier’s instructions. […] Concentration-response relationships were analyzed by fitting the data to the three-parameter model ‘log(agonist) vs response’ in GraphPad Prism 10.

[1] = 300 nM CP55,940 + 0.001 nM antagonist
[2] = 300 nM CP55,940 + 0.01 nM antagonist
[3] = 300 nM CP55,940 + 0.1 nM antagonist
[4] = 300 nM CP55,940 + 1 nM antagonist
[5] = 300 nM CP55,940 + 10 nM antagonist
[6] = 300 nM CP55,940 + 100 nM antagonist
[7] = 300 nM CP55,940 + 1000 nM antagonist
[8] = 25 nM CP55,940 + 0.001 nM antagonist
[9] = 25 nM CP55,940 + 0.01 nM antagonist
[10] = 25 nM CP55,940 + 0.1 nM antagonist
[11] = 25 nM CP55,940 + 0.3 nM antagonist
[12] = 25 nM CP55,940 + 1 nM antagonist
[13] = 25 nM CP55,940 + 3 nM antagonist
[14] = 25 nM CP55,940 + 10 nM antagonist
[15] = 25 nM CP55,940 + 30 nM antagonist
[16] = 25 nM CP55,940 + 100 nM antagonist
[17] = 25 nM CP55,940 + 300 nM antagonist
[18] = 25 nM CP55,940 + 1000 nM antagonist

T1 sequence (P21554 whole entry): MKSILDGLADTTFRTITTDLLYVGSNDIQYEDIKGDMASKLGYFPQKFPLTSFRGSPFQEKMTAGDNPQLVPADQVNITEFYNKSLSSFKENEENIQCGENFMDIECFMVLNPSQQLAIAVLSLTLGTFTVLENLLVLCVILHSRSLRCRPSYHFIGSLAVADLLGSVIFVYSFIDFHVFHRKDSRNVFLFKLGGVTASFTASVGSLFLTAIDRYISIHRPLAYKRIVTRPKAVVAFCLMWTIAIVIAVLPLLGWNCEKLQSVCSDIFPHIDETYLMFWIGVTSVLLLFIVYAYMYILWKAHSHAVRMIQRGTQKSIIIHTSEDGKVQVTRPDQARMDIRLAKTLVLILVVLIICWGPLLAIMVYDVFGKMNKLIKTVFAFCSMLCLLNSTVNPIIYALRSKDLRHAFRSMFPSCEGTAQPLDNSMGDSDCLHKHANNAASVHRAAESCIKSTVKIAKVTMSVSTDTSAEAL
T2 sequence (P21554 whole entry): as above

In the case of C[C@H](NC(=O)C(C)(C)Oc1ccc(C(F)(F)F)cn1)[C@@H](Cc1ccc(Cl)cc1)c1cccc(C#N)c1 [Taranabant, reference compound], the “[35S]GTPγS binding, normalized % response, MEAN” value (hCB1R; [1]) is reported as 100%, the “[35S]GTPγS binding, % basal response” value (hCB1R; [1]) is reported as 260% and 247% and 256% and 275% and the “[35S]GTPγS binding, cpm values” (hCB1R; [1]) is reported as 1546 cpm and 1640 cpm. For the same compound, the “[35S]GTPγS binding, normalized % response, MEAN” value (hCB1R; [2]) was 101%, the “[35S]GTPγS binding, % basal response” value (hCB1R; [2]) was 278% and 253% and 259% and 254% and the “[35S]GTPγS binding, cpm values” (hCB1R; [2]) was 1632 cpm and 1577 cpm and 1655 cpm and 1540 cpm. For the same compound, the “[35S]GTPγS binding, normalized % response, MEAN” value (hCB1R; [3]) was 99%, the “[35S]GTPγS binding, % basal response” value (hCB1R; [3]) was 269% and 255% and 232% and 271% and the “[35S]GTPγS binding, cpm values” (hCB1R; [3]) was 1592 cpm and 1586 cpm and 1518 cpm and 1620 cpm. For the same compound, the “[35S]GTPγS binding, normalized % response, MEAN” value (hCB1R; [4]) was 61%, the “[35S]GTPγS binding, % basal response” value (hCB1R; [4]) was 183% and 180% and 157% and 186% and the “[35S]GTPγS binding, cpm values” (hCB1R; [4]) was 1183 cpm and 1210 cpm and 1140 cpm and 1218 cpm. The “[35S]GTPγS binding, normalized % response, MEAN” value (hCB1R; [5]) was 23%, the “[35S]GTPγS binding, % basal response” value (hCB1R; [5]) was 97% and 108% and 77% and 106% and the “[35S]GTPγS binding, cpm values” (hCB1R; [5]) was 770 cpm and 853 cpm and 733 cpm and 843 cpm. The “[35S]GTPγS binding, normalized % response, MEAN” value (hCB1R; [6]) was 4.38%, the “[35S]GTPγS binding, % basal response” value (hCB1R; [6]) was 55% and 61% and 50% and 64% and the “[35S]GTPγS binding, cpm values” (hCB1R; [6]) was 573 cpm and 615 cpm and 594 cpm and 643 cpm. For the same compound, the “[35S]GTPγS binding, normalized % response, MEAN” value (hCB1R; [7]) was 0%, the “[35S]GTPγS binding, % basal response” value (hCB1R; [7]) was 51% and 43% and 48% and the “[35S]GTPγS binding, cpm values” (hCB1R; [7]) was 551 cpm and 566 cpm and 559 cpm and 569 cpm. For the same compound, the “β-arrestin-2 recruitment, normalized % response, MEAN” value (hCNR1; [8]) was 100%, the “β-arrestin-2 recruitment, lum values” (hCNR1; [8]) was 18372 lum and 18832 lum and 19264 lum and the “β-arrestin-2 recruitment, normalized % response, MEAN” value (hCNR1; [9]) was 103%. The “β-arrestin-2 recruitment, lum values” (hCNR1; [9]) was 18512 lum and 19404 lum and 19658 lum, the “β-arrestin-2 recruitment, normalized % response, MEAN” value (hCNR1; [10]) was 93% and the “β-arrestin-2 recruitment, lum values” (hCNR1; [10]) was 17743 lum and 17133 lum and 18279 lum. For the same compound, the “β-arrestin-2 recruitment, normalized % response, MEAN” value (hCNR1; [11]) was 82%, the “β-arrestin-2 recruitment, lum values” (hCNR1; [11]) was 14976 lum and 16754 lum and 16533 lum and the “β-arrestin-2 recruitment, normalized % response, MEAN” value (hCNR1; [12]) was 68%. The “β-arrestin-2 recruitment, lum values” (hCNR1; [12]) was 13162 lum and 13787 lum and 14480 lum, the “β-arrestin-2 recruitment, normalized % response, MEAN” value (hCNR1; [13]) was 29% and the “β-arrestin-2 recruitment, lum values” (hCNR1; [13]) was 7347 lum and 7603 lum and 8539 lum. For the same compound, the “β-arrestin-2 recruitment, normalized % response, MEAN” value (hCNR1; [14]) was 9%, the “β-arrestin-2 recruitment, lum values” (hCNR1; [14]) was 4145 lum and 4621 lum and 5550 lum and the “β-arrestin-2 recruitment, normalized % response, MEAN” value (hCNR1; [15]) was 10%. The “β-arrestin-2 recruitment, lum values” (hCNR1; [15]) was 4284 lum and 4671 lum and 5727 lum, the “β-arrestin-2 recruitment, normalized % response, MEAN” value (hCNR1; [16]) was 10% and the “β-arrestin-2 recruitment, lum values” (hCNR1; [16]) was 4501 lum and 4565 lum and 5759 lum. The “β-arrestin-2 recruitment, normalized % response, MEAN” value (hCNR1; [17]) was 11%, the “β-arrestin-2 recruitment, lum values” (hCNR1; [17]) was 4670 lum and 4722 lum and 5843 lum and the “β-arrestin-2 recruitment, normalized % response, MEAN” value (hCNR1; [18]) was 0%. The “β-arrestin-2 recruitment, lum values” (hCNR1; [18]) was 2971 lum and 2809 lum and 4191 lum and the “bias: difference in IC50, G protein ([35S]GTPγS) versus β-arrestin2” value (hCNR1; human CB1R-containing cell membranes) was “no apparent bias”.

Source: publication PMC11655885, “Structural mechanism of CB1R binding to peripheral and biased inverse agonists” (Nature Communications, 2024)
